Assay results as given in patent US20150087723A1, “MICROBIAL COMPOSITION” (Rohm and Haas Company, priority 2011, published 2015).
Where “and” joins values, the source holds several entries; their conditions need not be identical. Identical values can stand only once. Like-named read-outs stand apart in the source and are kept apart here.

Legend:
Type in all cases: cell-based
[1] = tested on: Staphylococcus aureus (10788 strain); assay: Antimicrobial efficacy in water, 15 seconds contact, mean bacterial survival NMBS by colony count
[2] = tested on: Escherichia coli (E. coli—ATCC #10536); assay: Automated assessment of efficacy in model surfactant base (2.85% sodium cocoyl glycinate + 1.85% sodium lauroamphoacetate, pH 10), 15 seconds exposure, OD450/OD590 readout; conditions: for MBC: Escherichia coli, ATCC10536, 15 s; for No. of replicates showing growth (out of 4) / Δ OD 450 nm = OD450 (time = 16 hours) - OD450 (time zero), Mean / Δ OD 590 nm OD590 (time = 16 hours) - OD590 (time zero), Mean: model surfactant solution
Protocol: Solutions were prepared such that the concentrations of the surfactant components and test actives were 1.1×x the final desired concentration in order to allow for dilution with the bacterial inoculum in the test. The solutions were manually adjusted to pH 10.0 by drop wise addition of sodium hydroxide solution, as measured with a phi meter at ambient temperature.
Tests were conducted using standard microtiter plate assays using an automated liquid handling system, 270 μl of the surfactant test solution was pipetted into each well of the microtitre plate and 30 μl of the bacterial suspension was then added. After exactly 15 seconds of bacterial exposure, a 30 μl volume of bacterial cells was withdrawn and transferred to 270 μl of D/E quench solution. After 5 minutes in the D/E quench, the optical density (OD) was measured for each plate in turn at two specific wavelengths (450 nm and 590 nm). These provide a dual check of antimicrobial activity, as the OD450 reading is specific for the yellow colour of D/E quench when bacterial growth is observed, whereas OD590 is specific for the initial purple colour of the D/E quench which is retained if no bacterial growth is observed. After the time zero OD measurements, plates were then incubated at 37° C. overnight (16 hours) before repeating the OD measurements. Delta OD values were calculated by subtracting […] the initial value at time zero. Bacterial growth is observed as an increase in OD450 and a decrease in ΔOD590. To identify antibacterially efficacious systems (those preventing appreciable bacterial growth after incubation), the following threshold changes in OD readings have been adopted: if (1), OD450 increases by less than 0.2 absorbance unit on incubation and (2). OD590 decreases by less than 0.35 unit on incubation. Conversely, where OD450 increases by more than 0.2 AU and OD590 decreases by more than 0.35 unit after incubation, corresponding to a colour shift from purple to yellow, the test system allows bacterial growth and is not deemed efficacious. Four replicate measurements in the same plate have been made for each test system. The number of replicate wells showing either bacterial growth or no growth is also readily assessed by eye by following the colour change.
Dose responses for individual components and binary mixtures of actives at a used concentration ratio were generated by sequential dilution of liquors with further surfactant solution to obtain a series of endpoints.
In some selected cases, the combinations were also tested at the weight ratio 1:1.

[3] = tested on: Escherichia coli (E. coli—ATCC #10536); assay: Synergy test: high resolution MBC microtiter plate assay, phosphate buffer containing 35% dipropylene glycol, 15 seconds contact; conditions: E. coli 10536; for SI (Synergy Index = Qa/QA + Qb/QB): at Qa and Qb, <1 synergy, 1 additivity, >1 antagonism; for Qb: MBC of the second component (B) acting alone (QB): component alone (Qa = 0), complete kill in 15 seconds
Source text: One measure of synergy is -the industrially accepted method described by Kull, F. C.; Eisman, P. C.; Sylwestrowicz, H. D. and Mayer, R. L., in Applied Microbiology 9:538-541 (1961), using the ratio determined by the formula:
Qa/QA+Qb/QB=Synergy Index (“SI”)
wherein: QA=concentration of compound A (first component) in percent, acting alone, which produced an end point (MBC of Compound A). Qa =concentration of compound A in percent, in the mixture, which produced an end point. QB=concentration of compound B (second component) in percent, acting alone, which produced an end point (MBC of Compound B). Qb=concentration of compound B in percent, in the mixture, which produced an end point.
When the sum of Qa/QA and Qb/QB is greater than one, antagonism is indicated. […] The lower the SI, the greater is the synergy shown by that particular mixture. The minimum biocidal concentration (MBC) of a microbicide is the lowest concentration tested under a specific set of conditions that provides complete kill of the tested microorganisms.
Synergy tests were-conducted using standard microtiter plate assays with, phosphate buffer containing 35% dipropylene glycol (DPG). In this method, a wide range of combinations of chemicals was tested by conducting high resolution MBC assays of Component (A) in the presence of various concentrations of Component (B). High resolution MBCs were determined by adding varying amounts of microbicide to one column of a microtiter plate and doing subsequent ten-fold dilutions using an automated liquid handling system to obtain a series of closely spaced endpoints. The MBC plate was inoculated one column at a time with the test microorganism. An aliquot of the inoculated well was transferred at 15 seconds to a plate containing a neutralizing agent (D/E Neutralizing Broth), mixed and held for 5 minutes before being transferred to a growth plate containing trypticase soy broth (TSB). The TSB plate was incubated at 37° C. and read for the presence/absence of growth at 24 hours. The lowest level tested that provided complete kill (as evidenced by no growth in the microtitre plate) of the test organisms in 15 seconds is the minimum biocidal concentration (MBC).
The synergy of the combinations of the present invention was determined against a bacterium, Escherichia coli (E. coli—ATCC #10536), at a concentration of approximately 1×10^8 bacteria per mL. This microorganism is representative of natural contaminants in many consumer and industrial applications.

[4] = tested on: Escherichia coli (10536 strain); assay: Antimicrobial efficacy in water, 15 seconds contact, mean bacterial survival NMBS by colony count
Protocol: An overnight culture of Escherichia coli (10536 strain) was prepared in 50 ml total volume of TSB broth, grown for ca. 18 hrs at 37° C. and shaken at 150 rpm. 1 ml of this overnight E. coli culture was transferred to 50 ml of fresh TSB broth and incubated at 37° C. at 150 rpm for ca. 4 hours. […] This bacterial stock was used for assaying against antimicrobial actives (in triplicate).
The following assay describes the testing of 8 materials using 6 dilutions across half of a 96-well micro litre plate (MTP). Using this approach it is possible to assay 16 actives (without replicates) with, one full dilution plate, replicating this set up in two halves of the plate columns, 1-6 and 7-12.
IM solutions of the test actives were prepared in dimethylsulphoxide (DMSO).
Aliquots (270 μl) of the materials at 1.11 times the final concentration were dispensed into the wells of the MTP along one column (A1-H1). This MTP was labeled as the “Screening plate”.
In another MTP, labeled as the “Dilution plate”, 270 μl of D/E neutralising solution from DIFCO Composition was added to column 1. The composition of the neutralising solution was as follows: pancreatic digest of casein, 5.0 g/L; Yeast Extract, 2.5 g/L; Dextrose, 10 g/L, sodium thioglycollate, 1.0 g/L, sodium thiosulphate, 6.0 g/L; sodium bisulphite, 2.5 g/L; Polysorbate 80, 5.0 g/L; lecithin 7.0 g/L; bromocresol purple, 0.02 g/L with a pH is the range 7.6±0.2.
270 μl of tryptone diluent solution was added to all the remaining wells of the Dilution MTP (columns 2-6).
Bacterial stock (30 μl) was then added to the prepared 270 μl of the solution of actives in the Screening Plate and mixed, using a multichannel pipette with 8 tips to aspirate and dispense the same volume of bacterial stock in parallel to 8 wells in rows A-H. After a contact time of 15 seconds, the mixtures were quenched by transferring 30 μl volumes of the mixtures into the 270 μl D/E neutralising solution in the prepared dilution plate, using aspiration to mix. After exactly 5 minutes in the D/E neutralising solution, 30 μl volumes were transferred from column 1 to column 2 of the Dilution MTP and mixed, before transferring further 30 μl volumes from column 2 into column 3. This process was repeated serially diluting the bacteria across the plate to column 6.
30 μl volumes from each well in the Dilution MTP were transferred onto pre-labeled segment of Tryptone Soya Agar (TSA) plates starting from the lowest bacterial concentration (highest dilution, column 6) to the highest bacterial concentration (column 1). The TSA plates were allowed to stand for ca. 2 hours so that the 30 μl inocula spots could dry and the plates were then inverted and incubated overnight at 37° C. before enumerating the bacterial colonies at the labeled dilutions to determine the effects of the actives on bacterial growth.
Mean bacterial survival numbers NMBS (expressed in Log CFU/ml) are obtained by first determining the segment of the TSA plate where the number of bacterial colonies is countable. From the colony number in this segment, NMBS is calculated by the formula: […]
Here, Ncol is the colony count, and DF is the dilution factor taken from the MTP-well corresponding to the TSA plate segment (i.e. DF may range from 1 for the quench, to 6 for the highest dilution).

[5] = in 2.85% sodium cocoyl glycinate + 1.85% sodium lauroamphoacetate solution at pH 10, E. coli, read-out: MBC (% w/v)

Compound | Log reduction S. aureus ATCC 6538 ([1]; component alone at 0.1% w/v) | MBC [2, 5] [µg/mL] | No. of replicates showing growth (out of 4) ([2]; component alone at 0.2% w/v) | Δ OD 450 nm = OD450 (time = 16 hours) - OD450 (time zero), Mean ([2]; component alone at 0.2% w/v) | Δ OD 590 nm OD590 (time = 16 hours) - OD590 (time zero), Mean ([2]; component alone at 0.2% w/v) | No. of replicates showing growth (out of 4) ([2]; component alone at 0.5% w/v) | Δ OD 450 nm = OD450 (time = 16 hours) - OD450 (time zero), Mean ([2]; component alone at 0.5% w/v) | Δ OD 590 nm OD590 (time = 16 hours) - OD590 (time zero), Mean ([2]; component alone at 0.5% w/v) | No. of replicates showing growth (out of 4) ([2]; component alone at […] w/v) | SI (Synergy Index = Qa/QA + Qb/QB) [3] | Qb: MBC of the second component (B) acting alone (QB) [3] | Log reduction E. coli ATCC 10536 ([4]; component alone at 0.1% w/v) | other results
C=CC(C)(O)CCC=C(C)C (racemic) [3,7-dimethylocta-1,6-dien-3-ol] | −0.13 | > 5000 | 4 out of 4 | −0.53 | 0.60 | 3 out of 4 | −0.30 | 0.50 | 4 out of 4 | 1.00 | 0.5 weight % | 0.06 | 
CC=Cc1ccccc1O [2-propenylphenol] | 1.92 |  |  |  |  |  |  |  |  |  |  | 1.86 | Log reduction S. aureus ATCC 6538 ([1]; component alone at 0.05% w/v): −0.18; Log reduction E. coli ATCC 10536 ([4]; component alone at 0.05% w/v): 1.27
C/C=C/c1ccccc1O [(E)-2-(prop-1-enyl)phenol] |  |  | 4 out of 4 | −0.53 | 0.63 |  |  |  | 4 out of 4 | 1.00 |  |  | MBC ([2]; pH 10, read-out: MBC (% w/v)): > 2000 µg/mL; No. of replicates showing growth (out of 4) ([2]; component alone at 0.1% w/v): 4 out of 4; Δ OD 450 nm = OD450 (time = 16 hours) - OD450 (time zero), Mean ([2]; component alone at 0.1% w/v): −0.60; Δ OD 590 nm OD590 (time = 16 hours) - OD590 (time zero), Mean ([2]; component alone at 0.1% w/v): 0.59; Δ OD 450 nm = OD450 (time = 16 hours) - OD450 (time zero), Mean ([2]; component alone at […] w/v): −0.57; Δ OD 590 nm OD590 (time = 16 hours) - OD590 (time zero), Mean ([2]; component alone at […] w/v): 0.58
CC(C)=CCC/C(C)=C\CO [cis-3,7-dimethyl-2,6-octadien-1-ol] |  | > 5000 | 4 out of 4 | −0.53 | 0.60 | 2 out of 4 | −0.14 | 0.40 |  | 1.00 | 0.25 weight % and 0.3 weight % and 0.5 weight % |  | No. of replicates showing growth (out of 4) ([2]; component alone at 0.3% w/v): 4 out of 4; Δ OD 450 nm = OD450 (time = 16 hours) - OD450 (time zero), Mean ([2]; component alone at 0.3% w/v): −0.51; Δ OD 590 nm OD590 (time = 16 hours) - OD590 (time zero), Mean ([2]; component alone at 0.3% w/v): 0.61; No. of replicates showing growth (out of 4) ([2]; component alone at 0.4% w/v): 4 out of 4; Δ OD 450 nm = OD450 (time = 16 hours) - OD450 (time zero), Mean ([2]; component alone at 0.4% w/v): −0.48; Δ OD 590 nm OD590 (time = 16 hours) - OD590 (time zero), Mean ([2]; component alone at 0.4% w/v): 0.62
